According to patent US9266835B2, “Quinoline derivatives useful as CB-1 inverse agonists” (JANSSEN PHARMACEUTICA NV, priority 2014, dated 2016):

Test: Chronic DIO Mouse, second study (food intake, body weight, insulin tolerance test, glucose tolerance test, plasma insulin, fed blood glucose)
Format: in vivo
Conditions: DIO mice
Description: Male 14-20-week old diet-induced obese mice were ordered from Taconic. Mice were started on a 60% fat diet (D12492, Research Diets, New Brunswick, N.J.) at 6 weeks of age. Mice were single-housed.
Test compounds were formulated in 10% PEG400 and 10% solutol. Test compounds were administered by oral gavage (5 ml kg^−1).
The test compound was formulated in 10% PEG400 and 10% solutol. DIO mice received vehicle, test compound (@ 1, 3 and 10 mg/kg) daily for 26 days. At the end of the experiment, the mice were euthanized and blood and tissues were collected.
Body weight and food weight (food intake) were monitored daily for days 1-5 and twice weekly thereafter. Fed blood glucose was measured weekly.
An insulin tolerance test (0.5 U/kg Humulin, ip) was performed on day 19 after a 4 hour food removal. Blood glucose was measured at 0, 15, 30, 60 and 120 minutes after insulin. […] Blood glucose was measured at 0, 30, 60 and 120 minutes after glucose challenge.
Blood glucose was measured from the tail vein with a Lifescan glucometer. Plasma insulin was measured with an ELISA or HTRF kit (Cisbio). Plasma parameters were measured with an Olympus clinical chemistry analyzer.
In a second study, Compound #44 was tested according to the procedure as described above, with results as listed in Tables BIO-5A through 5G, below.

## O=c1cc(NC2CCN(S(=O)(=O)C(F)(F)F)CC2)c2cc(C(c3ccc(Cl)cc3)c3ccc(Cl)cc3)ccc2[nH]1 [Compound #44, 6-(bis(4-chlorophenyl)methyl)-4-(1-(trifluoromethylsulfonyl)piperidin-4-ylamino)quinolin-2(1H)-one]
0.3 mg/kg
  Insulin Tolerance Test, Blood Glucose AUC: 20233.13 mg·min/dL
  Intraperitoneal Glucose Tolerance Test Blood Glucose AUC: 21550.00 mg·min/dL
  Plasma Insulin (Std Err): 3.89 (0.31) ng/mL
0.3 mg/kg, 0 min after glucose
  Intraperitoneal Glucose Tolerance Test Mean Blood Glucose: 155.44 mg/dL
0.3 mg/kg, 0 min after insulin
  Insulin Tolerance Test, Mean Blood Glucose: 185.00 mg/dL
0.3 mg/kg, 15 min after insulin
  Insulin Tolerance Test, Mean Blood Glucose: 172.38 mg/dL
0.3 mg/kg, 30 min after glucose
  Intraperitoneal Glucose Tolerance Test Mean Blood Glucose: 204.33 mg/dL
0.3 mg/kg, 30 min after insulin
  Insulin Tolerance Test, Mean Blood Glucose: 164.13 mg/dL
0.3 mg/kg, 60 min after glucose
  Intraperitoneal Glucose Tolerance Test Mean Blood Glucose: 187.67 mg/dL
0.3 mg/kg, 60 min after insulin
  Insulin Tolerance Test, Mean Blood Glucose: 169.38 mg/dL
0.3 mg/kg, 120 min after glucose
  Intraperitoneal Glucose Tolerance Test Mean Blood Glucose: 154.78 mg/dL
0.3 mg/kg, 120 min after insulin
  Insulin Tolerance Test, Mean Blood Glucose: 165.13 mg/dL
0.3 mg/kg, Day 0
  Fed Blood Glucose (Std Err): 165.4 (8.16) mg/dL
0.3 mg/kg, Day 1
  Mean Body Weight: 40.78 Grams
0.3 mg/kg, Day 2
  Mean Body Weight: 40.87 Grams
  Mean Daily Food Intake: 2.51 Grams
0.3 mg/kg, Day 3
  Mean Body Weight: 40.77 Grams
  Mean Daily Food Intake: 2.92 Grams
0.3 mg/kg, Day 4
  Mean Body Weight: 40.33 Grams
  Mean Daily Food Intake: 2.76 Grams
0.3 mg/kg, Day 5
  Mean Body Weight: 40.53 Grams
  Mean Daily Food Intake: 2.64 Grams
0.3 mg/kg, Day 8
  Mean Body Weight: 40.87 Grams
  Mean Daily Food Intake: 2.80 Grams
0.3 mg/kg, Day 10
  Mean Body Weight: 41.06 Grams
  Mean Daily Food Intake: 2.81 Grams
0.3 mg/kg, Day 11
  Mean Body Weight: 41.61 Grams
  Mean Daily Food Intake: 2.68 Grams
0.3 mg/kg, Day 18
  Fed Blood Glucose (Std Err): 161.22 (6.29) mg/dL
1 mg/kg
  Insulin Tolerance Test, Blood Glucose AUC: 21698.33 mg·min/dL
  Intraperitoneal Glucose Tolerance Test Blood Glucose AUC: 22102.50 mg·min/dL
  Plasma Insulin (Std Err): 3.12 (0.64) ng/mL
1 mg/kg, 0 min after glucose
  Intraperitoneal Glucose Tolerance Test Mean Blood Glucose: 156.60 mg/dL
1 mg/kg, 0 min after insulin
  Insulin Tolerance Test, Mean Blood Glucose: 181.70 mg/dL
1 mg/kg, 15 min after insulin
  Insulin Tolerance Test, Mean Blood Glucose: 193.89 mg/dL
1 mg/kg, 30 min after glucose
  Intraperitoneal Glucose Tolerance Test Mean Blood Glucose: 225.20 mg/dL
1 mg/kg, 30 min after insulin
  Insulin Tolerance Test, Mean Blood Glucose: 170.56 mg/dL
1 mg/kg, 60 min after glucose
  Intraperitoneal Glucose Tolerance Test Mean Blood Glucose: 185.50 mg/dL
1 mg/kg, 60 min after insulin
  Insulin Tolerance Test, Mean Blood Glucose: 182.78 mg/dL
1 mg/kg, 120 min after glucose
  Intraperitoneal Glucose Tolerance Test Mean Blood Glucose: 155.00 mg/dL
1 mg/kg, 120 min after insulin
  Insulin Tolerance Test, Mean Blood Glucose: 179.40 mg/dL
1 mg/kg, Day 0
  Fed Blood Glucose (Std Err): 170.80 (5.99) mg/dL
1 mg/kg, Day 1
  Mean Body Weight: 40.60 Grams
1 mg/kg, Day 2
  Mean Body Weight: 40.78 Grams
  Mean Daily Food Intake: 2.84 Grams
1 mg/kg, Day 3
  Mean Body Weight: 40.85 Grams
  Mean Daily Food Intake: 2.79 Grams
1 mg/kg, Day 4
  Mean Body Weight: 40.36 Grams
  Mean Daily Food Intake: 2.45 Grams
1 mg/kg, Day 5
  Mean Body Weight: 40.42 Grams
  Mean Daily Food Intake: 2.49 Grams
1 mg/kg, Day 8
  Mean Body Weight: 40.16 Grams
  Mean Daily Food Intake: 2.63 Grams
1 mg/kg, Day 10
  Mean Body Weight: 40.73 Grams
  Mean Daily Food Intake: 2.67 Grams
1 mg/kg, Day 11
  Mean Body Weight: 40.74 Grams
  Mean Daily Food Intake: 2.57 Grams
1 mg/kg, Day 18
  Fed Blood Glucose (Std Err): 151.20 (6.14) mg/dL
3 mg/kg
  Insulin Tolerance Test, Blood Glucose AUC: 19435.83 mg·min/dL
  Intraperitoneal Glucose Tolerance Test Blood Glucose AUC: 20854.50 mg·min/dL
  Plasma Insulin (Std Err): 1.74 (0.14) ng/mL
3 mg/kg, 0 min after glucose
  Intraperitoneal Glucose Tolerance Test Mean Blood Glucose: 141.30 mg/dL
3 mg/kg, 0 min after insulin
  Insulin Tolerance Test, Mean Blood Glucose: 161.10 mg/dL
3 mg/kg, 15 min after insulin
  Insulin Tolerance Test, Mean Blood Glucose: 179.67 mg/dL
3 mg/kg, 30 min after glucose
  Intraperitoneal Glucose Tolerance Test Mean Blood Glucose: 224.30 mg/dL
3 mg/kg, 30 min after insulin
  Insulin Tolerance Test, Mean Blood Glucose: 156.33 mg/dL
3 mg/kg, 60 min after glucose
  Intraperitoneal Glucose Tolerance Test Mean Blood Glucose: 174.20 mg/dL
3 mg/kg, 60 min after insulin
  Insulin Tolerance Test, Mean Blood Glucose: 167.22 mg/dL
3 mg/kg, 120 min after glucose
  Intraperitoneal Glucose Tolerance Test Mean Blood Glucose: 138.90 mg/dL
3 mg/kg, 120 min after insulin
  Insulin Tolerance Test, Mean Blood Glucose: 159.78 mg/dL
3 mg/kg, Day 0
  Fed Blood Glucose (Std Err): 161.8 (6.57) mg/dL
3 mg/kg, Day 1
  Mean Body Weight: 40.54 Grams
3 mg/kg, Day 2
  Mean Body Weight: 40.47 Grams
  Mean Daily Food Intake: 2.50 Grams
3 mg/kg, Day 3
  Mean Body Weight: 40.24 Grams
  Mean Daily Food Intake: 2.41 Grams
3 mg/kg, Day 4
  Mean Body Weight: 39.39 Grams
  Mean Daily Food Intake: 2.02 Grams
3 mg/kg, Day 5
  Mean Body Weight: 39.11 Grams
  Mean Daily Food Intake: 2.02 Grams
3 mg/kg, Day 8
  Mean Body Weight: 38.59 Grams
  Mean Daily Food Intake: 2.13 Grams
3 mg/kg, Day 10
  Mean Body Weight: 38.48 Grams
  Mean Daily Food Intake: 2.57 Grams
3 mg/kg, Day 11
  Mean Body Weight: 38.13 Grams
  Mean Daily Food Intake: 2.29 Grams
3 mg/kg, Day 18
  Fed Blood Glucose (Std Err): 142.60 (4.44) mg/dL
10 mg/kg
  Insulin Tolerance Test, Blood Glucose AUC: 16134.75 mg·min/dL
  Intraperitoneal Glucose Tolerance Test Blood Glucose AUC: 20820.00 mg·min/dL
  Plasma Insulin (Std Err): 1.64 (0.32) ng/mL
10 mg/kg, 0 min after glucose
  Intraperitoneal Glucose Tolerance Test Mean Blood Glucose: 149.00 mg/dL
10 mg/kg, 0 min after insulin
  Insulin Tolerance Test, Mean Blood Glucose: 161.10 mg/dL
10 mg/kg, 15 min after insulin
  Insulin Tolerance Test, Mean Blood Glucose: 143.90 mg/dL
10 mg/kg, 30 min after glucose
  Intraperitoneal Glucose Tolerance Test Mean Blood Glucose: 218.50 mg/dL
10 mg/kg, 30 min after insulin
  Insulin Tolerance Test, Mean Blood Glucose: 133.60 mg/dL
10 mg/kg, 60 min after glucose
  Intraperitoneal Glucose Tolerance Test Mean Blood Glucose: 169.60 mg/dL
10 mg/kg, 60 min after insulin
  Insulin Tolerance Test, Mean Blood Glucose: 126.20 mg/dL
10 mg/kg, 120 min after glucose
  Intraperitoneal Glucose Tolerance Test Mean Blood Glucose: 146.60 mg/dL
10 mg/kg, 120 min after insulin
  Insulin Tolerance Test, Mean Blood Glucose: 136.10 mg/dL
10 mg/kg, Day 0
  Fed Blood Glucose (Std Err): 167.9 (4.63) mg/dL
10 mg/kg, Day 1
  Mean Body Weight: 40.51 Grams
10 mg/kg, Day 2
  Mean Body Weight: 39.87 Grams
  Mean Daily Food Intake: 2.07 Grams
10 mg/kg, Day 3
  Mean Body Weight: 39.16 Grams
  Mean Daily Food Intake: 1.63 Grams
10 mg/kg, Day 4
  Mean Body Weight: 38.04 Grams
  Mean Daily Food Intake: 1.48 Grams
10 mg/kg, Day 5
  Mean Body Weight: 37.5 Grams
  Mean Daily Food Intake: 1.38 Grams
10 mg/kg, Day 8
  Mean Body Weight: 35.69 Grams
  Mean Daily Food Intake: 1.64 Grams
10 mg/kg, Day 10
  Mean Body Weight: 35.08 Grams
  Mean Daily Food Intake: 2.08 Grams
10 mg/kg, Day 11
  Mean Body Weight: 34.63 Grams
  Mean Daily Food Intake: 2.12 Grams
10 mg/kg, Day 18
  Fed Blood Glucose (Std Err): 144.30 (6.47) mg/dL
